Measured values published in patent US6682740B1 (Yeda Research and Development Co. Ltd., priority 1997, dated 2004).
Residues, ends and D or L forms follow the SMILES beside them. No end group written: not given here.

Assays:
[1] = system: RBL-2H3 cells; assay: Inhibition of antigen-induced (IgE-mediated) β-hexosaminidase secretion by RBL-2H3 cells; format: cell-based, rat; conditions: for inhibition of antigen-induced / IgE-dependent degranulation (β-hexosaminidase release): RBL-2H3 cells, result in words
Method: Cells. Rat mucosal mast cells, subline RBL-2H3 (Barsumian et al, 1981) were maintained in Eagle's MEM with Earle's salts supplemented by 10% FCS, 2 mM glutamine and antibiotics in a humidified atmosphere with 7% CO2 at 37° C. Secretory Response of Mast Cells. Mediator secretion by mast cells in response to stimulation by FcεRI clustering was monitored by measuring the activity of the granular enzyme β-hexosaminidase. DNP-specific murine IgE mAb, A2 (3 μl ascites) was added to 10^6 cells in 10 ml MEM and incubated in 96-well plates (100 μl suspension/well) for 2 h. Then, monolayers were washed three times with Tyrode's buffer and stimulated with the antigen (DNP11-BSA). […] Following incubation at 37° C. for 1 h, 20 μl of supernatants were taken and incubated with 50 μl of substrate solution (1.3 mg/ml p-nitrophenyl-N-acetyl-β-D-glucosamine in 0.1 M sodium citrate, pH 4.5) at 37° C. for 45 min. The reaction was terminated by the addition of 150 μl of 0.2 M glycine, pH 10.7, and the optical density of the samples was measured at 405 nm. Results of one representative experiment out of four yielding similar results are presented as percent of the total cell content of the enzyme minus the basal secreted activity. […] Degranulation of the cells was monitored by measuring the activity of the enzyme β-hexosaminidase released into the supernatants after stimulation for 1 h at 37° C. and are presented as net percentages of the cells' total β-hexosaminidase activity.

[2] = target: T1, FcεRI molecules on RBL-2H3 cells (Rattus norvegicus, UniProt P12371+P13386); assay: Homo-FRET between FITC-IgE and TRITC-IgE on RBL-2H3 cells (flow cytometry); format: cell-based; conditions: dE = (E/E[control] − 1) × 100; for dE % (Dose 1): Dose 1: C3a 30 μM, C3a2 110 μM, C3a5 110 μM, C3a9 290 μM, C3a14-P 250 μM; for dE % (Dose 2): Dose 2: C3a 70 μM, C3a2 270 μM, C3a5 270 μM, C3a9 670 μM, C3a14-P 630 μM
T1 construct: targeting FcεRI molecules on RBL-2H3 cells; endogenous in cells; host or cells: RBL-2H3
T1 sequence (P12371 24-245): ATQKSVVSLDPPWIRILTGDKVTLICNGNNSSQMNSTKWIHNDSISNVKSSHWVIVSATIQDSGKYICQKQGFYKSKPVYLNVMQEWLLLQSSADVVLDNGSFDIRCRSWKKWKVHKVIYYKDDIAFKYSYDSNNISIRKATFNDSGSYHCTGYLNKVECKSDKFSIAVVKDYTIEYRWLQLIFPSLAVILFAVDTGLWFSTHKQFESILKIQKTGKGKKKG
T1 sequence (P13386 1-243): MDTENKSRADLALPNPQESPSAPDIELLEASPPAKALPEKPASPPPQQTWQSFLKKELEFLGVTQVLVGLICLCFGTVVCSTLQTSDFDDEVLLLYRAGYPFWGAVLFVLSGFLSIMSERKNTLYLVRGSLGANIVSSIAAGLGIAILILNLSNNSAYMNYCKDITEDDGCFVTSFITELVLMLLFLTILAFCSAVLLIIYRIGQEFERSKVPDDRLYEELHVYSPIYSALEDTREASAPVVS
T1 sequence (P20411 19-86 partner): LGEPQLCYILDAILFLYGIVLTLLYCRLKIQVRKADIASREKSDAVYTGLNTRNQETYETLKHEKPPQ
Method: The Forster-type resonance energy transfer between FITC-IgE and TRITC-IgE targeting FcεRI molecules on RBL-2H3 cells was measured (at 1:1 donor-acceptor ratio) by flow cytometry using a BectonDickinson FACStar Plus flow cytometer.

[3] = system: RBL-2H3 cells; assay: Binding of FITC-labeled C3a14-P to RBL-2H3 cells; parameters: species or system rat; conditions: for binding to RBL-2H3 cells: various concentrations, measured after washing / flow cytometry
Method: (§1) This supports proximity between the FcεR (IgE receptor) and the peptide.
RBL-2H3 cells were incubated with the peptide at various concentrations and binding was measured after washing the cells.

[4] = system: BMMC; assay: Binding of FITC-labeled C3a14-P to BMMC (flow cytometry); parameters: species or system mouse; conditions: results not shown
Source text: as §1

[5] = system: IgE-TRITC on RBL-2H3 cells; assay: FRET between C3a14-P-FITC and IgE-TRITC on RBL-2H3 cells; format: binding, rat
[6] = system: Ovalbumin-Sensitized Guinea Pig Model; assay: Anaphylactic shock in ovalbumin-sensitized guinea pig model (death, respiratory parameters); format: in vivo; conditions: except for transient changes in respiratory parameters
Method: Guinea pigs (GPs), weighing 350-400 g (from Charles River, GB) were sensitized to rabbit anti-chicken egg albumin (Sigma) by i.p. injection (0.6 mg/kg, using a solution of 1.5 mg/ml in DDW). Twenty-four hours following sensitization, GPs were challenged with inhaled aerosol of chicken ovalbumin (Sigma). The aerosol was generated from an aqueous solution of 25 mg/ml and aerosolized with air 24 l/min. Exposure duration was 1-3 min, according to the required dose. […] During the challenge the GPs were restrained in plethysmographs and their tidal volume, minute volume and respiration rate parameters were monitored. The GPs that received pretreatment with tire mast cell inhibitor C3a9 treated with aerosolized C3a9 peptide (a solution of 0.25 mg/ml, aerosolized with air 24 l/min and treated for 10 min.). The treatment ended 5 min before the challenge with OA. It is estimated that under these conditions each GP inhaled about 7 μg of the peptide. Respiratory parameters of the animals were further monitored for 10 min post challenge.
Eight GPs were tested in each group.

[7] = target: RBL-2H3 cells (rat mucosal mast cells), binding partner on the cell surface not identified; assay: fluorescence of washed RBL-2H3 cells, peptide dose 250 µM
[8] = target: RBL-2H3 cells (rat mucosal mast cells), binding partner on the cell surface not identified; assay: fluorescence of washed RBL-2H3 cells, peptide dose 510 µM
[9] = target: RBL-2H3 cells (rat mucosal mast cells), binding partner on the cell surface not identified; assay: fluorescence of washed RBL-2H3 cells, peptide dose 630 µM
[10] = system: RBL-2H3 cells; conditions: earlier experiments, cited from earlier work

DSSNYIR [C3a11, Asp-Ser-Ser-Asn-Tyr-Ile-Arg]
inhibition of antigen-induced / IgE-dependent degranulation (β-hexosaminidase release) [1]: inhibit IgE-dependent degranulation of RBL-2H3 cells to a similar extent as did C3a2

CNYITELRRQHARASHLGLAR [C3a2]
inhibition of antigen-induced / IgE-dependent degranulation (β-hexosaminidase release) [1]: inhibited in a dose-dependent manner
secretory response when only the peptide was added ([1]; peptide alone, same range of concentrations, no antigen): No secretory response
dE % (Dose 1) [2]: −101%
dE % (Dose 2) [2]: −130%

C3a14-P-FITC: FITC-labeled peptide C3a14-P (DSSNYITR; also: FITC label, position not given here)
Fluorescence Mean (w/o background) ([3]; peptide dose 250 μM): 25
Fluorescence Mean (w/o background) ([3]; peptide dose 510 μM): 74
Fluorescence Mean (w/o background) ([3]; peptide dose 630 μM): 157
binding to RBL-2H3 cells ([3]; listed as FITC-15 labeled C3a14-P): showed binding
binding to RBL-2H3 cells ([3]; listed as FITC-Labeled C3a14-P): specific binding, but no saturation is reached
binding to BMMC [4]: showed binding
FRET Efficiency E (%) ([5]; cells incubated with amount 20 of C3a14-P-FITC (unit not given)): 33%
FRET Efficiency E (%) ([5]; cells incubated with amount 40 of C3a14-P-FITC (unit not given)): 17%
FRET Efficiency E (%) ([5]; cells incubated with amount 60 of C3a14-P-FITC (unit not given)): 9%

KKVFLDCCNYITELRRQHAR [C3a5]
dE % (Dose 1) [2]: −65%
dE % (Dose 2) [2]: −78%

CC[C@H](C)[C@H](NC(=O)[C@H](Cc1ccc(O)cc1)NC(=O)[C@H](CC(N)=O)NC(=O)[C@H](CS)NC(=O)[C@H](CS)NC(=O)[C@@H](N)CC(=O)O)C(=O)N[C@H](C(=O)N[C@@H](CCCNC(=N)N)C(N)=O)[C@@H](C)O [C3a9] (H-DCCNYITR-NH2)
dE % (Dose 1) [2]: −64%
dE % (Dose 2) [2]: −67%
effect of the C3a9 aerosol treatment itself on GPs (respiratory parameters) [6]: not affected by the treatment

DSSNYITR [C3a14-P]
dE % (Dose 1) [2]: −72%
dE % (Dose 2) [2]: −97%

Cys-Cys-Asn-Tyr-Gly (CCNYG; not fully specified; printed: Cys-Cys-Asn-Tyr-Gly) [C3a13]
inhibition of antigen-induced / IgE-dependent degranulation (β-hexosaminidase release) [1]: inhibit IgE-dependent degranulation of RBL-2H3 cells to a similar extent as did C3a2

SVQLTEKRMDKVGKYPKELR [C3a1, reference compound]
inhibition of antigen-induced / IgE-dependent degranulation (β-hexosaminidase release) [1]: had no effect at all

B1: FITC-labeled C3a14-P (peptide)
peptide: DSSNYITR-NH2
modifications: also: FITC-labeled, position of label not given here
Fluorescence Mean (w/o background) [7]: 25
Fluorescence Mean (w/o background) [8]: 74
Fluorescence Mean (w/o background) [9]: 157

B2: C5a: complement-derived peptide C5a (protein, UniProt P01031 678-751, looked up)
C5a anaphylatoxin: TLQKKIEEIAAKYKHSVVKKCCYDGACVNNDETCEQRAARISLGPRCIKAFTECCVVASQLRANISHKDMQLGR
modifications: C5a anaphylatoxin
secretory response when added alone ([10]; peptide alone (Erdei et al, 1995)): none of the complement-peptides C3a and C5a triggered the secretory response
inhibition of antigen-induced degranulation of RBL-2H3 ([10]; range of human C3a concentrations (Erdei et al, 1995)): had no effect at all
